From patent US20160024114A1, “MACROCYCLIC RIP2 KINASE INHIBITORS” (ONCODESIGN S.A, priority 2013, published 2016)

Biological target: RIP2 recombinant protein (Homo sapiens, UniProt O43353)
Test: radiometric protein kinase assay (33PanQinase Activity Assay), in vitro peptide-based kinase assay
Format: biochemical
Conditions: for remaining activity at 0.1 µM / remaining activity at 1 µM: 1 h; for remaining activity at 0.1 µM: compound at 0.1 μM; for remaining activity at 1 µM: compound at 1 μM; for IC50: ATP 3.0 μM, RIP2 15.7 nM, substrate RBER-Chktide
Procedure: The inhibition of RIP2 kinase was assessed using RIP2 recombinant protein in an in vitro peptide-based kinase assay.
A radiometric protein kinase assay (^33PanQinase® (^33PanQinase Activity Assay) is used for measuring the kinase activity. All assays are performed in 96-well FlashPlates™ from Perkin Elmer in a 50 μl reaction volume. The reaction cocktail is pipetted in 4 steps in the following order:
10 μl of non-radioactive ATP solution (in H2O)
25 μl of assay buffer/[γ-^33P]-ATP mixture
5 μl of test sample in 10% DMSO
10 μl of enzyme/substrate mixture
The assay for RIP2 contains 70 mM HEPES-NaOH pH 7.5, 3 mM MgCl2, 3 mM MnCl2, 3 μM Na-orthovanadate, 1.2 mM DTT, 50 μg/ml PEG20000, ATP (3.0 μM), [γ-^33P]-ATP (approx. 5×10^05 cpm per well), protein kinase RIP2 (15.7 nM) and substrate (RBER-Chktide), 2.0 μg/50 μl). The reaction cocktails were incubated at 30° C. for 60 minutes. The reaction was stopped with 50 μl of 2% (v/v) H3PO4, plates were aspirated and washed two times with 200 μl 0.9% (w/v) NaCl. Incorporation of ^33Pi (counting of “cpm”) was determined with a microplate scintillation counter.
The compounds are dissolved to 10 mM in DMSO. Where needed, solutions are sonicated in a bath sonicator.
Table 4 provides the pIC50 values and % Remaining activity values at two concentrations (1 μM and 0.1 μM) of the compounds according to the invention, obtained using the above mentioned kinase assay.

RIP2 recombinant protein, sequence (O43353 whole entry): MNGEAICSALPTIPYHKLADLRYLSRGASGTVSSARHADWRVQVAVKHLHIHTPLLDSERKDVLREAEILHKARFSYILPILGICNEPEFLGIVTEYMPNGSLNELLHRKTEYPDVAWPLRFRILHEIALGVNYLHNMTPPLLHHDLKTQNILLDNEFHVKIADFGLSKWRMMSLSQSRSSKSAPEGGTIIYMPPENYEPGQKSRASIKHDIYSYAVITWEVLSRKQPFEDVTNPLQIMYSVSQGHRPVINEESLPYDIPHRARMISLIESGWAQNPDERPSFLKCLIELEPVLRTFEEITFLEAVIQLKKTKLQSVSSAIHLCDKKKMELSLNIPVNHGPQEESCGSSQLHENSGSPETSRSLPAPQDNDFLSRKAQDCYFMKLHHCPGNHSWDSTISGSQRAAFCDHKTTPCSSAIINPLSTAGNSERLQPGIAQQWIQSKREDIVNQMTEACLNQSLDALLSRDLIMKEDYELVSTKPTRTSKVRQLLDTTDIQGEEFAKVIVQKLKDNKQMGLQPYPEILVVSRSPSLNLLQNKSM

Compound | remaining activity at 0.1 µM [%] | remaining activity at 1 µM [%] | IC50 [nM]
COCCN1CCCOc2cc(F)cc(c2)-c2cnn3ccc(nc23)NCC1 [Compound F87] | < 50 | < 50 | < 100
CCCCN1CCNc2ccn3ncc(c3n2)-c2cc(cc(C(N)=O)c2)OCC1 [Compound F92] | < 50 | < 50 | < 100
CC1CNc2ccn3ncc(c3n2)-c2cccc(c2)OCC(=O)N1 (stereo not shown) [Compound F105] | > 50 | < 50 | 100 to 1000
COCCN1CCCNc2ccn3ncc(c3n2)-c2cc(Cl)cc(c2)OCC1 [Compound F88] | < 50 | < 50 | < 100
Fc1cc2cc(c1)-c1cnn3ccc(nc13)NCCN(C1CCC3(CC1)OCCO3)CCO2 [Compound F84] | < 50 | < 50 | 100 to 1000
CN1CCN(C(=O)C2CC2)CCNc2ccn3ncc(c3n2)-c2cccc(c2)C1 [Compound B76] | > 50 | < 50 | 100 to 1000
O=C(CN1CCOCC1)N1CCNc2ccn3ncc(c3n2)-c2cccc(c2)OCC1 [Compound B36] | < 50 | < 50 | < 100
NC(=O)c1ccc2cc1OCC(=O)NCCCNc1ccn3ncc-2c3n1 [Compound B21] | < 50 | < 50 | < 100
Fc1cc2cc(c1)-c1cnn3ccc(nc13)NCCN(C1CCOCC1)CCO2 [Compound F82] | < 50 | < 50 | < 100
CCC(C)N1CCNc2ccn3ncc(c3n2)-c2cc(F)cc(c2)OCC1 (stereo not shown) [Compound F83] | < 50 | < 50 | < 100
CN(C)CCN1CCN(C(=O)C2CC2)CCOc2cccc(c2)-c2cnn3ccc1nc23 [Compound B48] | < 50 | < 50 | < 100
COCCN1CCCNc2ccn3ncc(c3n2)-c2cc(F)cc(c2)OCC1 [Compound F86] | < 50 | < 50 | < 100
O=C1CCNc2ccn3ncc(c3n2)-c2cc(F)cc(c2)OCCN1 [Compound B74] | < 50 | < 50 | 100 to 1000
CCCCN1CCNc2ccn3ncc(c3n2)-c2cc(F)cc(c2)OCC1 [Compound F81] | < 50 | < 50 | < 100
NC(=O)c1cc2cc(c1)-c1cnn3ccc(nc13)NCCN(C1COC1)CCO2 [Compound F91] | < 50 | < 50 | < 100
O=C1COc2cncc(c2)-c2cnn3ccc(nc23)NCCCN1 [Compound F106] |  |  | 100 to 1000
CC1(C)CCCC(N2CCNc3ccn4ncc(c4n3)-c3cc(F)cc(c3)OCC2)C1 (stereo not shown) [Compound F89] | < 50 | < 50 | 100 to 1000
CC1CNCCOc2cccc(c2)-c2cnn3ccc(nc23)N1 (stereo not shown) [Compound F108] |  |  | 100 to 1000
COCCC(=O)N1CCCN(C)c2cccc(c2)-c2cnn3ccc(nc23)NCC1 [Compound B19] | < 50 | < 50 | 
